The values below are quoted from earlier work in patent US10335367B2, “Use of selected anticholinergic zwitterions” (Bodor Laboratories, Inc., priority 2015, dated 2019).

One data set deals with progression of myopia. Particulars: 2% ophthalmic gel; school-aged children.

The structures appear in SMILES notation. Like-named read-outs stand apart in the source and are kept apart here.

Take `CN1CCN(CC(=O)N2c3ccccc3C(=O)Nc3cccnc32)CC1` [Pirenzepine]: in the data set on progression of myopia, the “slowing the progression of myopia” value is on record as “found effective”.

With `CN1[C@@H]2CC[C@H]1C[C@@H](OC(=O)C(CO)c1ccccc1)C2` (stereo partly shown) [atropine], the “mean myopia progression at 2 years” value in the data set on myopia progression (0.01% atropine) is reported as 0.24 D/year; in the data set on myopia progression (0.1% atropine) it was 0.19 D/year; in the data set on myopia progression (0.5% atropine), 0.15 D/year.
